Assay results: ChEMBL document CHEMBL1909046, “DrugMatrix in vitro pharmacology data”

Tests used:
[1] = molecular target: T1, C-X-C chemokine receptor type 2 (Homo sapiens, UniProt P25025); assay type: cell membranes, Membrane; conditions: cho-k1; note: in other assays of this panel Not Active means under 50% inhibition at 10 µM
T1 sequence (P25025 whole entry): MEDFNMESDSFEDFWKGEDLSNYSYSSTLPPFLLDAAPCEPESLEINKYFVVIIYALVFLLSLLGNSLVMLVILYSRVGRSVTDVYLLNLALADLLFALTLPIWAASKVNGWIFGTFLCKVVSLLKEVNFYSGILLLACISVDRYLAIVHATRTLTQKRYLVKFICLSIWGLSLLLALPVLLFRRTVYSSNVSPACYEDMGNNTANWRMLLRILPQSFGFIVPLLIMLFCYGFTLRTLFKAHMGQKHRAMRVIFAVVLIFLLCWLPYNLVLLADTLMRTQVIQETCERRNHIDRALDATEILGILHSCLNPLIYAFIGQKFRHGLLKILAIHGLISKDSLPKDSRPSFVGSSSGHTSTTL

[2] = molecular target: Insulin receptor (Rattus norvegicus, UniProt P15127); assay type: cell membranes, Wistar, Liver, Membrane; note: in other assays of this panel Not Active means under 50% inhibition at 10 µM
Sequence of Insulin receptor (P15127 27-759 limits assumed): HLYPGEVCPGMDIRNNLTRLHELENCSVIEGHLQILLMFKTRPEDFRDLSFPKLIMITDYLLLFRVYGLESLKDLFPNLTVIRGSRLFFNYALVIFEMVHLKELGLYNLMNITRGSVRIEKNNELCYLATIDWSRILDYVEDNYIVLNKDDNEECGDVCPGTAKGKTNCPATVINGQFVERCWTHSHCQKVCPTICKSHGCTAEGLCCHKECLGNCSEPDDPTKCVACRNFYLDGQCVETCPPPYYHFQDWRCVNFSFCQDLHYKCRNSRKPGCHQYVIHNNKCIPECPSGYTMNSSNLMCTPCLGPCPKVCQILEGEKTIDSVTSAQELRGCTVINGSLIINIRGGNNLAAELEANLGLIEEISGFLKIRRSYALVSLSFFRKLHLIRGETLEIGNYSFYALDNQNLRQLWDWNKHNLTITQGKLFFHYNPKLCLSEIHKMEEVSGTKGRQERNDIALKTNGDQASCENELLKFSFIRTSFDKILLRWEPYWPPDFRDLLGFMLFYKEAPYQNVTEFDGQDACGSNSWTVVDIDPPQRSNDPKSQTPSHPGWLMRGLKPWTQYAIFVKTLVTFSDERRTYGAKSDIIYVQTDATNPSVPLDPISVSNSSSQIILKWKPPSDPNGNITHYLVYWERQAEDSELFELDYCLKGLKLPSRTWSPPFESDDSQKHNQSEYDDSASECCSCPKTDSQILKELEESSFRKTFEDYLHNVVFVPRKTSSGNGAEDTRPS
Sequence of Insulin receptor (P15127 764-1383 limits assumed): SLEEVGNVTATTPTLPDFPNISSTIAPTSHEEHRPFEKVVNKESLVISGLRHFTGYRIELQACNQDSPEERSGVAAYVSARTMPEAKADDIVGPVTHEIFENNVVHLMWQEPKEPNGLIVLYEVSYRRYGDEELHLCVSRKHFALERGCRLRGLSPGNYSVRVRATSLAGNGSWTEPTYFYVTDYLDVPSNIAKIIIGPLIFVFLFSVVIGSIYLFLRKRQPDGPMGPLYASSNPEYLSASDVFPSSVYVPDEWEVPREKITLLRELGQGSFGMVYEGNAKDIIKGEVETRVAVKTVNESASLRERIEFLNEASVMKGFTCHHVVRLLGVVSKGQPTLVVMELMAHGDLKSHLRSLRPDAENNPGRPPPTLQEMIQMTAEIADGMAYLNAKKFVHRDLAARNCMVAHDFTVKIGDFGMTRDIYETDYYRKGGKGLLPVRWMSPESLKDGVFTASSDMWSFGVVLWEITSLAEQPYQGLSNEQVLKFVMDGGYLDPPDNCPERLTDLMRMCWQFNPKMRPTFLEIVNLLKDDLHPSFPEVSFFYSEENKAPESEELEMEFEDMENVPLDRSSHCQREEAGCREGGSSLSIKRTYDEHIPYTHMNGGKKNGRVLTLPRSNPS

[3] = molecular target: T2, Amine oxidase [flavin-containing] A (Homo sapiens, UniProt P21397); assay: DRUGMATRIX: Monoamine Oxidase MAO-A enzyme inhibition (substrate: Kynuramine); design: species or system BTI-TN-5B1-4; conditions: bti-tn-5b1-4; Not Active = under 50% inhibition at 10 µM
T2 sequence (P21397 whole entry): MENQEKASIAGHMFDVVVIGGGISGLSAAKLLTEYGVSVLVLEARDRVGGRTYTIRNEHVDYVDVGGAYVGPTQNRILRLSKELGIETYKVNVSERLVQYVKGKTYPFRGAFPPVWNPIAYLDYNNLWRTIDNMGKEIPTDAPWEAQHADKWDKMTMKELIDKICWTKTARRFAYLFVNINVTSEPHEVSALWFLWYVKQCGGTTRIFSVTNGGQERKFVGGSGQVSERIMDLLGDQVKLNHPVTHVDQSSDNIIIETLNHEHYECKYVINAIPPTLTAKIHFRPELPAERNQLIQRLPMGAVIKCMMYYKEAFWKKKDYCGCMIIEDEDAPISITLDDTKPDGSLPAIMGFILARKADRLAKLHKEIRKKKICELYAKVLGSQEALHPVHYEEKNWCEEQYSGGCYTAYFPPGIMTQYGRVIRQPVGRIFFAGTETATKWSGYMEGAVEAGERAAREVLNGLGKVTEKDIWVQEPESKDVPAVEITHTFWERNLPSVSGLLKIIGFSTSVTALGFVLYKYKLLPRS

[4] = molecular target: T3, Muscarinic acetylcholine receptor M4 (Homo sapiens, UniProt P08173); assay type: cell membranes, CHO-K1, Membrane; conditions: for Ki: read-out: Ki; for all read-outs here: in other assays of this panel Not Active means under 50% inhibition at 10 µM
T3 sequence (P08173 whole entry): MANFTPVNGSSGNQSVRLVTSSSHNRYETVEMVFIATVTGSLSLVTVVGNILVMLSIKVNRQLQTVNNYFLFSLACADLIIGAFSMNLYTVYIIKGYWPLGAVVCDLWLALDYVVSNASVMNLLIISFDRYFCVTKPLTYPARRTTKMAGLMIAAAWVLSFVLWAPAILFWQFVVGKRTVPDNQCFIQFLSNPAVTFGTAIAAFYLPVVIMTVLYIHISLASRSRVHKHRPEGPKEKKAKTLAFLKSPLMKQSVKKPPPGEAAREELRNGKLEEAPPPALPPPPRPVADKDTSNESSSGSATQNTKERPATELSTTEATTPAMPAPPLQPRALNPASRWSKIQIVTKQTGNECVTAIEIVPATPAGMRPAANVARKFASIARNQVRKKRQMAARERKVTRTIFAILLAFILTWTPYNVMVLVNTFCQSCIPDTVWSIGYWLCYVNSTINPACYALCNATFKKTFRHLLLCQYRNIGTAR

[5] = molecular target: Acetylcholinesterase (Homo sapiens, UniProt P22303); assay: DRUGMATRIX: Acetylcholinesterase enzyme inhibition (substrate: acetylthiocholine); assay type: cell-based, HEK293; conditions: Not Active = under 50% inhibition at 10 µM
Sequence of Acetylcholinesterase (P22303 whole entry): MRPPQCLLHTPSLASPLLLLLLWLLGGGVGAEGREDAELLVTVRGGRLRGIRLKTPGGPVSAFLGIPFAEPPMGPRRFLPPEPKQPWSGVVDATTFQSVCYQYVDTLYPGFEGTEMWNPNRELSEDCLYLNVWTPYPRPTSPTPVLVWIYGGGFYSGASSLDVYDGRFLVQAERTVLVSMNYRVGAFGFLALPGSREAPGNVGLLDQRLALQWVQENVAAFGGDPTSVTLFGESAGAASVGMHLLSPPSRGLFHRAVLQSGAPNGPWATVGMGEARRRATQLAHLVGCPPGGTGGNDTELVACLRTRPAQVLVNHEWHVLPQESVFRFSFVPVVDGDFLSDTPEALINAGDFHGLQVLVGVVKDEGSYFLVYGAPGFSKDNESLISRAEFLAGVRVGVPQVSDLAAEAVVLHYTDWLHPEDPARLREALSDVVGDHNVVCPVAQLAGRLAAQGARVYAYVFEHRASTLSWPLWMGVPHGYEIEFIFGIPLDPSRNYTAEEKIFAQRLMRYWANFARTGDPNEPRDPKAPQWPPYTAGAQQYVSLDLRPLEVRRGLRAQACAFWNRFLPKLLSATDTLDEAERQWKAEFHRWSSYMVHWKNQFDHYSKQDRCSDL

[6] = molecular target: T4, Adenosine receptor A1 (Homo sapiens, UniProt P30542); assay type: cell membranes, CHO, Membrane;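 note: radioligand binding assay at the adenosine A1 receptor, with DPCPX serving as the labelled ligand; in other assays of this panel Not Active means under 50% inhibition at 10 µM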
T4 sequence (P30542 whole entry): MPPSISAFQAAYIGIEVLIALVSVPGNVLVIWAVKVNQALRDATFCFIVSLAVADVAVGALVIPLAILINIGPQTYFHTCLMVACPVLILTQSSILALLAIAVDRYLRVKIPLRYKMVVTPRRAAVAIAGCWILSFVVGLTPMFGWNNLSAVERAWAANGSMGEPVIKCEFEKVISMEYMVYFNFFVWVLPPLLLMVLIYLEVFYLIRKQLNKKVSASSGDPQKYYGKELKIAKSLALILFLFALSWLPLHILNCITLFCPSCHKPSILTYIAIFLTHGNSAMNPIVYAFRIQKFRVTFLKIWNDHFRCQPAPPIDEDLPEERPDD

[7] = molecular target: Voltage-gated inwardly rectifying potassium channel KCNH2 (Homo sapiens, UniProt Q12809); conditions: hek293; note: in other assays of this panel Not Active means under 50% inhibition at 10 µM
Sequence of Voltage-gated inwardly rectifying potassium channel KCNH2 (Q12809 whole entry): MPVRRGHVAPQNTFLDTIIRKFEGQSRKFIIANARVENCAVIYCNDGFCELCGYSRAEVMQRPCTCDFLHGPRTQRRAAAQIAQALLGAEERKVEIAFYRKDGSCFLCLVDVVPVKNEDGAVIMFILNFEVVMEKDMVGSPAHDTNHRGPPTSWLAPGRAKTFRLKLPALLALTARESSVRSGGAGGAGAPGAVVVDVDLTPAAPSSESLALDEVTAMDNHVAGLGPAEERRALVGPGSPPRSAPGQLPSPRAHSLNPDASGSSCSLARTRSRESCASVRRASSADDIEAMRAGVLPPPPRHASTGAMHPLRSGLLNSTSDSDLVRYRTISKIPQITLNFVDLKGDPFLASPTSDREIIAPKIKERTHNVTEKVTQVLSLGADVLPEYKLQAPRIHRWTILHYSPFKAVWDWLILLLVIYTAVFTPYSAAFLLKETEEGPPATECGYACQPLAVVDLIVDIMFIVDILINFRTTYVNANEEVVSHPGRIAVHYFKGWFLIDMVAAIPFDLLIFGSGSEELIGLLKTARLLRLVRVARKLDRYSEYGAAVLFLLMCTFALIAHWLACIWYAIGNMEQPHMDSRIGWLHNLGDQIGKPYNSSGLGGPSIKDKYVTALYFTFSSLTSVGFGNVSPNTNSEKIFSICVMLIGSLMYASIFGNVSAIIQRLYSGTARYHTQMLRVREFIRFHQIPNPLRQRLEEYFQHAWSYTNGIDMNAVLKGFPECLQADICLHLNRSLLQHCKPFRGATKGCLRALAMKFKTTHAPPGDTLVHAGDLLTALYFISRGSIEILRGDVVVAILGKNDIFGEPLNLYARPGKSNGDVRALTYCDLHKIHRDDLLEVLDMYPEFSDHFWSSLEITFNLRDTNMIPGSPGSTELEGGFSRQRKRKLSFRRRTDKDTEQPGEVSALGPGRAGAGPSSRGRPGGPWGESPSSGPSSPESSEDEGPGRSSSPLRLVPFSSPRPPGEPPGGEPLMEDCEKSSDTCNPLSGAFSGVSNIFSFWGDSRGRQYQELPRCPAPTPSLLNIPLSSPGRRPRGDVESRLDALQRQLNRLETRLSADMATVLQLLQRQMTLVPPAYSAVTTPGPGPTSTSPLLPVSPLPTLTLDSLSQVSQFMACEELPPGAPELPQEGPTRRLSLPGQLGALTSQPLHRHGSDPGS

| SMILES | IC50 [1] | IC50 [2] | IC50 [3] | IC50 ([4]; cho-k1) | IC50 ([5]; hek293) | IC50 ([6]; cho) | IC50 [7] | Ki [7] | IC50 ([4]; read-out: IC50) | Ki [4] | IC50 ([5]; read-out: IC50) | IC50 ([6]; read-out: IC50) | Ki ([6]; read-out: Ki) |
| --- | --- | --- | --- | --- | --- | --- | --- | --- | --- | --- | --- | --- | --- |
| CCCCC(=O)N(Cc1ccc(-c2ccccc2-c2nnn[nH]2)cc1)[C@H](C(=O)O)C(C)C | Not Active | Not Active | Not Active | Not Active | Not Active | Not Active | Not Active | Not Active | – | – | – | – | – |
| O=C(O)COc1ccc(C(=O)c2cccs2)c(Cl)c1Cl | Not Active | Not Active | Not Active | Not Active | Not Active | Not Active | Not Active | Not Active | – | – | – | – | – |
| CN1[C@@H]2CC[C@H]1C[C@@H](OC(c1ccccc1)c1ccccc1)C2 [BENZTROPINE] | Not Active | Not Active | Not Active | – | Not Active | Not Active | Not Active | Not Active | – | – | – | – | – |
| C[C@@](Cc1ccc(O)c(O)c1)(NN)C(=O)O.O [CARBIDOPA] | Not Active | Not Active | Not Active | Not Active | Not Active | Not Active | Not Active | Not Active | – | – | – | – | – |
| CN1CCN(C2=Nc3cc(Cl)ccc3Nc3ccccc32)CC1 [CLOZAPINE] | Not Active | Not Active | Not Active | – | Not Active | Not Active | – | – | – | – | – | – | – |
| CC(C)NC[C@@H](O)COc1cccc2ccccc12 [DEXPROPRANOLOL] | Not Active | Not Active | Not Active | Not Active | Not Active | Not Active | Not Active | Not Active | – | – | – | – | – |
| CC(C)NC[C@H](O)COc1cccc2ccccc12 [LEVOPROPRANOLOL] | Not Active | Not Active | Not Active | Not Active | Not Active | Not Active | Not Active | Not Active | – | – | – | – | – |
| O=C(O)CCCCC1CCSS1 (stereo not drawn) [LIPOIC ACID, ALPHA] | Not Active | Not Active | Not Active | Not Active | Not Active | Not Active | Not Active | Not Active | – | – | – | – | – |
| CN(C)C(=O)C(CCN1CCC(O)(c2ccc(Cl)cc2)CC1)(c1ccccc1)c1ccccc1 [LOPERAMIDE] | Not Active | Not Active | Not Active | Not Active | Not Active | Not Active | Not Active | Not Active | – | – | – | – | – |
| Clc1ccc(COC(Cn2ccnc2)c2ccc(Cl)cc2Cl)c(Cl)c1 (stereo unspecified) [MICONAZOLE] | Not Active | Not Active | Not Active | – | – | – | Not Active | Not Active | 3200 nM | 446 nM | 18700 nM | – | – |
| Oc1ccc2c3c1O[C@H]1[C@@H](O)CC[C@@]4(O)[C@@H](C2)N(CC2CCC2)CC[C@]314 [NALBUPHINE] | Not Active | Not Active | Not Active | Not Active | Not Active | Not Active | Not Active | Not Active | – | – | – | – | – |
| C[C@]12C=CC(=O)C=C1CC[C@@H]1[C@@H]2C(=O)C[C@@]2(C)[C@H]1CC[C@]2(O)C(=O)CO [PREDNISONE] | Not Active | Not Active | Not Active | Not Active | Not Active | Not Active | Not Active | Not Active | – | – | – | – | – |
| OCCOCCN1CCN(C2=Nc3ccccc3Sc3ccccc32)CC1 [QUETIAPINE] | Not Active | Not Active | Not Active | – | Not Active | Not Active | – | – | – | – | – | – | – |
| COC(=O)[C@H]1[C@H]2C[C@@H]3c4[nH]c5cc(OC)ccc5c4CCN3C[C@H]2C[C@@H](OC(=O)c2cc(OC)c(OC)c(OC)c2)[C@@H]1OC [RESERPINE] | Not Active | Not Active | Not Active | Not Active | Not Active | Not Active | Not Active | Not Active | – | – | – | – | – |
| O=C(O)c1ccccc1O [SALICYLIC ACID] | Not Active | Not Active | Not Active | Not Active | Not Active | Not Active | Not Active | Not Active | – | – | – | – | – |
| C[S+]([O-])c1ccc(-c2nc(-c3ccncc3)c(-c3ccc(F)cc3)[nH]2)cc1 (stereo unspecified) [SB-203580] | Not Active | Not Active | Not Active | Not Active | Not Active | – | – | – | – | – | – | 2950 nM | 1720 nM |
| CC1CCC(NC(=O)N(CCCl)N=O)CC1 (stereo unspecified) [SEMUSTINE] | Not Active | Not Active | Not Active | Not Active | Not Active | Not Active | Not Active | Not Active | – | – | – | – | – |
| O=C1C[C@@H]2OCC=C3CN4CC[C@]56c7ccccc7N1[C@H]5[C@H]2[C@H]3C[C@H]46 [STRYCHNINE] | Not Active | Not Active | Not Active | Not Active | Not Active | Not Active | Not Active | Not Active | – | – | – | – | – |
| C[N+](C)(C)CCOC(=O)CCC(=O)OCC[N+](C)(C)C.[Cl-].[Cl-] [SUCCINYLCHOLINE CHLORIDE] | Not Active | Not Active | Not Active | Not Active | Not Active | Not Active | Not Active | Not Active | – | – | – | – | – |
| Nc1ccc(S(=O)(=O)NC(=O)c2ccccc2)cc1 [SULFABENZAMIDE] | Not Active | Not Active | Not Active | Not Active | Not Active | Not Active | Not Active | Not Active | – | – | – | – | – |
| CCCCCCCCNC(C)C(O)c1ccc(SC(C)C)cc1 (stereo unspecified) [SULOCTIDIL] | Not Active | Not Active | Not Active | – | Not Active | Not Active | Not Active | Not Active | 4560 nM | 636 nM | – | – | – |
| O=c1[nH]c(=O)n(C2CCCO2)cc1F (stereo unspecified) [TEGAFUR] | Not Active | Not Active | Not Active | Not Active | Not Active | Not Active | Not Active | Not Active | – | – | – | – | – |
| CC(=N)S [THIOACETAMIDE] | Not Active | Not Active | Not Active | Not Active | Not Active | Not Active | Not Active | Not Active | – | – | – | – | – |
| Cc1ccc(C(=O)c2ccc(CC(=O)O)n2C)cc1 [TOLMETIN] | Not Active | Not Active | Not Active | Not Active | Not Active | Not Active | Not Active | Not Active | – | – | – | – | – |
| CN1CCN(CCCN2c3ccccc3Sc3ccc(C(F)(F)F)cc32)CC1 [TRIFLUOPERAZINE] | Not Active | Not Active | Not Active | Not Active | Not Active | Not Active | – | – | – | – | – | – | – |
